Source: a melting point compilation (Tetko et al.; mined from patent text by program, amines drawn as free bases though some values may be those of a salt)

Compared with Cc1nc(N2CCNCC2)nc(N2CCSCC2)c1C#N, Cc1nc(CCN2CCOCC2)c2c(n1)N(CC#N)C(=O)C(N)O2 (centres undefined) is lower in melting point: 146 to 148 °C for the first, 126 to 128 °C for the second.

First: CC(=O)Nc1nc2c(Oc3cc(-c4ccc(C(F)(F)F)cc4NC(=O)OC(C)(C)C)ncn3)cccc2s1
Second: CC(C)Cc1nc2ccc(Br)cc2c(-c2ccccc2)c1CNC(=O)OC(C)(C)C
The melting point of the first is higher: 194 to 195 °C for the first, 193 to 194 °C for the second.

First: CSc1cc(C(C)(C)C)c(O)c(C(=O)O)c1C
Second: Cc1c(O)c(Cl)cc(Cl)c1C(=O)O
The melting point of the first is higher: 138 to 139 °C for the first, 135 °C for the second.

Compared with CCCS(=O)(=O)c1c(Cl)cnc(Cl)c1Cl, O=c1nc(Cl)cnn1-c1cc(Cl)cc(Cl)c1 is higher in melting point: 73 to 78 °C for the first, 148 to 149 °C for the second.

First: COC(=O)c1cccc2c1N=C(c1ccccc1Cl)CC2=O
Second: COC(=O)C1C(=O)NC(=O)C12C(=O)N1c3ccccc3Sc3cccc2c31 (centres undefined)
The melting point of the first is lower: 166 to 168 °C for the first, 221 to 224 °C for the second.

First: COC1=C(OC)C(=O)C2=C(CC(CCCCOc3ccc(C(=O)O)cc3)C2)C1=O
Second: CCCCOc1ccc([N+](=O)[O-])c(C(=O)O)c1
The melting point of the first is higher: 149 to 153 °C for the first, 82 to 84 °C for the second.

First: Nc1cc(-c2ccnc3c(C(=O)c4cccs4)cnn23)ccc1F
Second: CCOC(=O)c1c(-c2ccc(F)cc2)cc(-c2cccs2)nc1C(C)C
The melting point of the first is higher: 241 to 242 °C for the first, 114 to 115 °C for the second.

First: COc1ccccc1CNc1ccc2cc(Nc3ncco3)ccc2n1
Second: COC(CNc1nc(-c2ccccc2)c2cc(Cl)ccc2n1)OC
The melting point of the first is higher: 205 °C for the first, 122 to 123 °C for the second.

First: COC(=O)c1cnc(N2CCN(c3nc4ccc(C(F)(F)F)cc4[nH]3)CC2)c(Cl)c1
Second: COCCOc1ccc(CCCOc2cc(CCC(=O)O)n(C)n2)c(Oc2ncc(C(F)(F)F)cc2Cl)c1
The melting point of the first is higher: 153 to 159 °C for the first, 114 to 115 °C for the second.

First: CC(C)C(NC(=O)c1ccc(C(=O)NC(CCC(=O)O)C(=O)O)cc1)C(=O)N1CCCC1C(=O)NC(C(=O)C(F)(F)F)C(C)C (mixture of isomers)
Second: CCNC(=O)c1cc2c(c(Cl)c1O)CCN(C(=O)OC(C)(C)C)C[C@@H]2c1ccc(O)cc1
The melting point of the first is lower: 74 to 76 °C for the first, 120 to 125 °C for the second.

First: COC12CC(c3nnc(-c4cncc(Br)c4)o3)CN(C)C1Cc1cn(C)c3cccc2c13 (centres undefined)
Second: Cc1cccc(COc2nn3c(-c4ccccc4)nnc3cc2C23CCC(CC2)C3)n1
The melting point of the first is higher: 183 to 186 °C for the first, 162 to 164 °C for the second.

Compared with COc1ccc(Cc2nc(C#N)c[nH]2)cc1, CCOC(=O)c1nc(-c2cccc([N+](=O)[O-])c2)[nH]c1-c1ccc(OC)cc1 is higher in melting point: 170 to 171 °C for the first, 208 to 210 °C for the second.

First: Cc1c(NC(=O)CC(C)(C)C)cc2c(c1C)OC(C)(C)C2c1cccs1 (centres undefined)
Second: CC(C)(C)c1cc(C(=O)NN)cc(C(C)(C)C)c1O
The melting point of the first is lower: 137 to 138 °C for the first, 187 to 188 °C for the second.

First: Oc1ccc(-c2cnc3cnc(-c4ccccc4O)nc3c2)cc1
Second: NC(=O)c1ccccc1-c1ccc2ccc(SCc3ccccc3)nc2n1
The melting point of the first is higher: > 268 °C for the first, 144 to 145 °C for the second.

First: Cc1oc(-c2ccccc2)nc1CCCc1ccc(CC(C(=O)O)c2cccc(-c3ccccc3)c2)cc1 (centres undefined)
Second: Cc1oc(-c2ccccc2)nc1COc1nn(Cc2ccc(Oc3ccccc3)cc2)cc1/C=C/C(=O)O
The melting point of the first is lower: 75 to 80 °C for the first, 210 to 211 °C for the second.

First: O=C1CC(=CCl)c2c(O)cc(O)cc2O1
Second: COc1cc(C=O)cc(Cl)c1OCCBr
The melting point of the first is higher: 228 to 230 °C for the first, 52 to 54 °C for the second.

Compared with O=Cc1ccc(CO)cn1, CC(=O)Cc1cccc(S(N)(=O)=O)c1 is higher in melting point: 75 °C for the first, 155 to 157 °C for the second.

Compared with O=C1NC(=O)C(=Cc2ccc(CCSc3ccccc3)cc2)S1, N#Cc1cccc(C2=Nc3ccc(CCc4ccccc4)cc3NC(=O)C2)c1 is higher in melting point: 159 to 161 °C for the first, 212 to 214 °C for the second.

First: CC(O)c1nccc2c1CCCC2 (centres undefined)
Second: O=[N+]([O-])c1nccn1C1CCCCC1O (centres undefined)
The melting point of the first is lower: 60 to 61 °C for the first, 141 °C for the second.

Compared with NS(=O)(=O)c1cc2c(s1)SC(CCO)CN2 (centres undefined), CC(C)(C)OC(=O)NCCNS(=O)(=O)c1cc([N+](=O)[O-])c(Cl)s1 is lower in melting point: 145 to 147 °C for the first, 116 °C for the second.

First: N#Cc1c(N2CCN(C(=O)c3cccs3)CC2)c2ccsc2n(Cc2ccccc2)c1=O
Second: O=C(N1CCN(Cc2ccccc2)CC1)N1CC(Oc2ccc(Br)cc2)C1
The melting point of the first is higher: 257 °C for the first, 133 to 135 °C for the second.

First: Cc1cc(C2=NOC(c3cc(Cl)cc(Cl)c3)(C(F)(F)F)C2)ccc1Cl (centres undefined)
Second: O=C(O)C1=Cc2cc(Cl)c(Oc3cccnc3)cc2OC1C(F)(F)F (centres undefined)
The melting point of the first is lower: 110 to 111 °C for the first, 238 to 239 °C for the second.

First: COc1cc2ncc(N[C@H]3CC[C@@H](O)CC3)nc2cc1OC
Second: CCOC(=O)N1CC[C@H](NC(=O)c2cc(N)c(Cl)cc2OC)[C@H](OC)C1 (relative stereo)
The melting point of the first is lower: 65 to 67 °C for the first, 142 °C for the second.

First: O=C1OC(CCc2ccccc2)(c2ccccc2)CC(O)=C1CCc1ccccc1 (centres undefined)
Second: O=C(N[C@@H](Cc1ccc(NC(=O)c2c(Cl)cccc2Cl)cc1)C(=O)O)OCC1c2ccccc2-c2ccccc21
The melting point of the first is lower: 68 to 70 °C for the first, 230 to 234 °C for the second.

First: CCOC(=O)C1NCc2[nH]c3cccc(OCc4ccccc4)c3c2C1COC (centres undefined)
Second: O=C(O)CCCCCc1c(OCc2ccccc2)ccc2cncn12
The melting point of the first is higher: 170 to 171 °C for the first, 139 to 141 °C for the second.

Compared with CC1(C)C(=O)Oc2ccc3cc(C#N)c(Cn4cncn4)cc3c21, C[C@@H](n1cnc2cc(-c3ccc(C(=N)NC#N)cc3)sc2c1=O)[C@](O)(Cn1cncn1)c1ccc(F)cc1F is higher in melting point: 198 °C for the first, 275 to 278 °C for the second.

Compared with CN1CCN(c2cc(N)ccc2Br)CC1, CN1CCN(C2=Nc3ccccc3Cc3nccn32)CC1 is higher in melting point: 120 to 122 °C for the first, 123 to 124 °C for the second.

Compared with Cc1c(F)c(N2CCC(N)C2)c(F)c2c1c(=O)c(C(=O)O)cn2C1CC1 (centres undefined), O=C1Nc2cc(F)c(F)cc2N2CCN(C(=O)OCc3ccccc3)CC12 (centres undefined) is lower in melting point: > 300 °C for the first, 226 to 228 °C for the second.

Compared with CC(C)CC(NC(=O)OC(C)(C)C)C(O)c1ccccn1 (centres undefined), CCOC(=O)C(NC(C)=O)(C(=O)OCC)[C@@H]1CC(=O)C[C@H]1NC(=O)OC(C)(C)C (relative stereo) is higher in melting point: 83 to 84 °C for the first, 135 to 136 °C for the second.

First: CCn1nc2c(N)nc3ccccc3c2c1CCCCOC(C)=O
Second: CCOC(=O)c1c(C)nc2c3cccc(Cl)c3ccn12
The melting point of the first is lower: 128 to 129 °C for the first, 140 to 141 °C for the second.

First: Cn1nc(-c2ncc(Cl)cc2F)c(C(F)F)c1OC(F)F
Second: CCc1cc(CC)c(-c2c(O)c(C)nn(C)c2=O)c(CC)c1Cl
The melting point of the first is lower: 79 to 81 °C for the first, 225 to 226 °C for the second.

Compared with O=C1C(CCC(O)c2ccc(F)cc2)C(c2ccc(-c3ccccc3O)cc2)N1c1ccc(F)cc1 (centres undefined), Cc1ccc(S(=O)(=O)c2ncccc2NC(=O)N[C@@H](Cc2ccc(NC(=O)c3c(Cl)cccc3Cl)cc2)C(=O)O)cc1 is higher in melting point: 101 °C for the first, 180 °C for the second.

First: CCOc1cc(-c2cc(C(F)F)n3ncc(-c4nc(-c5ccc(N)nc5)no4)c3n2)ccc1C(F)(F)F
Second: Cc1ccc([N+](=O)[O-])cc1Nc1nccc(-c2cncnc2)n1
The melting point of the first is higher: 250 °C for the first, 200 to 203 °C for the second.

Compared with NCCCC(O)c1ccccc1 (centres undefined), CN1c2c(Cl)cc(CC(=O)O)cc2CCC1c1ccccc1 (centres undefined) is higher in melting point: 94 to 96 °C for the first, 111 to 112 °C for the second.

First: CCCCc1nc2c(N)nc3ccccc3c2n1CCCCNC(=O)Nc1cccc(NC(=O)NCCCCn2c(CCCC)nc3c(N)nc4ccccc4c32)c1
Second: Cc1ccc(OC(=O)c2cccc(C(=O)Oc3ccc(C)cc3-n3nc4ccccc4n3)c2)c(-n2nc3ccccc3n2)c1
The melting point of the first is higher: 160 to 166 °C for the first, 115 to 118 °C for the second.

Compared with CC(OS(C)(=O)=O)C(C)N1C(=O)c2ccccc2C1=O (centres undefined), CCc1cc(CCN2C(=O)c3ccccc3C2=O)c(=O)[nH]c1C is higher in melting point: 67 to 73 °C for the first, 232 to 233 °C for the second.

Compared with CCOC(=O)C1=C(C)NC(=S)NC1c1cccc([N+](=O)[O-])c1 (centres undefined), CCOC(=O)c1ccc2c(S)cccn2c1=O is lower in melting point: 208 to 209 °C for the first, 111 to 113 °C for the second.

Compared with CN(C)c1cccc2c(S(=O)(=O)Nc3cnc(Br)c(Cl)n3)cccc12, Cc1ccccc1Nc1c(C(=O)C(C)C)cnc2c(OCCO)cccc12 is lower in melting point: 180 to 182 °C for the first, 138 to 140 °C for the second.

First: O=C(O)Cc1cc(N=Nc2ccc(S(=O)(=O)Nc3ccccn3)cc2)ccc1O
Second: CCn1c(C)c(C(=O)c2ccc(C)c3ccccc23)c2ccccc21
The melting point of the first is lower: 135 °C for the first, 136 to 137 °C for the second.

First: CCOC(=O)c1c2n(c3cc(N4CCN(Cc5oc(=O)oc5C)CC4)c(F)cc3c1=O)C(C)S2 (centres undefined)
Second: CC(C)(C)c1cc(/C=C/C=C/C(=O)NCCN2CCC(c3c[nH]c4ccccc34)CC2)cc(C(C)(C)C)c1O
The melting point of the first is higher: 241 to 243 °C for the first, 108 to 115 °C for the second.

Compared with CCOc1ccccc1-c1ncc(-c2nnn[nH]2)c(=O)[nH]1, C=CCSc1nnc(OC)c2ccccc12 is lower in melting point: 289 to 290 °C for the first, 32 to 34 °C for the second.

First: CCN1C(=O)C(=O)N(c2cc(F)ccc2C)C1=S
Second: CCCCc1c[nH]c2cccc(SC)c2c1=O
The melting point of the first is higher: 152 to 153 °C for the first, 144 °C for the second.

Compared with CC(C)(C)c1cc(CNC2CCCCC2)c(O)c(C(C)(C)C)c1, CCNC(=S)NS(=O)(=O)c1cc2c(cc1OC)OCC(NC(=O)c1cc(Cl)ccc1OC)C2 (centres undefined) is higher in melting point: 67 to 70 °C for the first, 194 to 195 °C for the second.

First: CC1(C)C(=O)N(c2ccc(C#N)c(C(F)(F)F)c2)C(=O)N1CCCCCN1C(=O)N(c2ccc(C#N)c(C(F)(F)F)c2)C(=O)C1(C)C
Second: CCOC(=O)c1ccc(OC(=O)CCCC(=O)Oc2ccc(C(=O)OCC)cc2)cc1
The melting point of the first is higher: 167 to 169 °C for the first, 81 to 82 °C for the second.

Compared with CCCCCCCCCC(C)(C)c1cc(C(=O)O)ccc1OC, CCCc1c(OCCCCSCCC(=O)O)ccc(C(C)=O)c1O is lower in melting point: 112 °C for the first, 75 to 77 °C for the second.

First: Cc1cc(CCCCCOc2c(Cl)cc(C3=NCCO3)cc2Cl)on1
Second: Clc1csc(-c2nc(COc3ccc(CCCn4ccnc4)cc3)co2)c1
The melting point of the first is lower: 42 to 43 °C for the first, 69 to 70 °C for the second.

First: COc1[nH]c(C)cc1C#N
Second: N#CC#Cc1ccc(O)cc1
The melting point of the first is lower: 105 °C for the first, 134 to 137 °C for the second.

First: Cc1c(NCCN)nc(=O)n(C)c1N
Second: O=C(NC=Cc1ccc(O)cc1)c1ccc(Cl)cc1
The melting point of the first is lower: 186 to 188 °C for the first, 243 to 244 °C for the second.

First: Clc1cc2oc3ccccc3c2nn1
Second: Oc1cc2c(cc1F)[C@H](O)[C@H](N1CCC(O)(c3ccc(F)cc3)CC1)CO2 (relative stereo)
The melting point of the first is lower: 122 °C for the first, 160 to 161 °C for the second.

COc1cc(Br)c(O)c(/C=C/C(=O)/C=C/c2cc(OC)cc(Br)c2O)c1 gave a melting point of 155 to 157 °C.
